Values joined by “and” are separate entries in the source; they are usually repeats but may differ in a detail not shown here. Equal values may be shown once. “Also recorded” adds a separate entry of the source.
Key:
[1] = Stability in mouse plasma; assay type: in vitro ADME; conditions: for T½ in mouse plasma / half-life at 2 µM: 37 °C, incubation to 120 min, extrapolated half-life, n = 2; for half-life at 2 µM / remaining at 0 h, 2 µM / remaining at 10 min, 2 µM / remaining at 0.5 h, 2 µM / remaining at 1 h, 2 µM / remaining at 2 h, 2 µM: male, CD-1, mouse, plasma; for half-life at 2 µM: read-out: T½ in mouse plasma; for remaining at 0 h, 2 µM: 0 min; for remaining at 0.5 h, 2 µM: 30 min; for remaining at 1 h, 2 µM: 60 min; for remaining at 2 h, 2 µM: 120 min
From the text: (§1) We investigated the relative rates of esterase-mediated hydrolysis[17] observed in mouse and human plasma, to evaluate potential for future translational applications. […] Due to the high stability of the C15 lactone, identified above, combined with the kinetic lability and reversible opening of the C11 lactone identified previously, enzymatic degradation in serum likely reflects a combination of reversible C11 hydrolysis[38] (unaffected by C5 methylation) and irreversible C15 hydrolysis (obstructed by C5 methylation)[17]. No prior studies have identified PXN modifications that enhance metabolic stability, partly due to the difficulty of synthetic modification and partly due to the prior incorrect assignment of the site of kinetic hydrolysis (C11 vs. C15)[38].
(§2) Test compound working solution: 5 μL of tested compound stock solution (10 mM in DMSO) were diluted with 495 μL of DMSO (concentration: 100 μM, 100% DMSO). Propantheline bromide working solution: 5 μL of propantheline bromide stock solution (10 mM in DMSO) were diluted with 495 μL of H2O (concentration: 100 […]
(§3) Supplementary Table 6. Test system.
(§4) Species/ Matrix Minimum No. of Anticoagulant Vendor
(§5) CD-1 Mouse 20 Male EDTA-K2 Beijing Vital River Laboratory
(§6) Human Plasma 3 Male & 3 Female EDTA-K2 BioreclamationIVT
(§7) The pooled frozen plasma was thawed in a water bath at 37 °C prior to experiment. Plasma was centrifuged at 1968 g (4000 rpm) for 5 min and the clots were removed. Using an Apricot automation work station, 98 μL/well of blank plasma were added to all 96-well reaction plates. (Blank, T0, T10, T30, T60 and T120) . An Apricot automation workstation was used to add 2 μL/well of working solution (100 μM) to all reaction plates except Blank. (T0, T10, T30, T60 and T120) . All reaction plates containing mix tures of compound a nd plasma were incubated at 37 °C in water bath. The reaction plates were incubated at 37 °C, and timer was started. At the end of incubation, 400 μL of stock solution was added (200 ng/mL tolbutamide and 200 ng/mL labetalol in MeCN) to precipitate protein and mixed thoroughly. Each plate was sealed and shaken for 20 minutes, then centrifuged at 1968 g (4000 rpm) and 4 °C for 20 minutes. After centrifugation, an Apricot automation workstation was used to transfer 150 μL supernatant. Each bioanalysis plate was sealed and shaken for 10 minutes prior to LC -MS/MS […]
(§8) The % remaining of test compound after incubation in plasma was calculated using following equation:
(§9) % Remaining= 100 x (PAR at appointed incubation time / PAR at T0 time) where PAR is the peak area ratio of analyte versus internal standard (IS) The appointed incubation time points are T0 (0 min), Tn (n=0, 10, 30, 60, 120 min)
(§10) Supplementary Table 7. %Remaining of test compound in two plasmas.
(§11) Compound Time point (min) % Remaining T½ (min)

[2] = Stability in human plasma; assay type: in vitro ADME; conditions: for T½ in human plasma / half-life at 2 µM: 37 °C, incubation to 120 min, extrapolated half-life, n = 2; for half-life at 2 µM / remaining at 0 h, 2 µM / remaining at 10 min, 2 µM / remaining at 0.5 h, 2 µM / remaining at 1 h, 2 µM / remaining at 2 h, 2 µM: both sexes, human, plasma; for half-life at 2 µM: read-out: T½ in human plasma; for remaining at 0 h, 2 µM: 0 min; for remaining at 0.5 h, 2 µM: 30 min; for remaining at 1 h, 2 µM: 60 min; for remaining at 2 h, 2 µM: 120 min
From the text: as §1, §2, §3, §4, §5, §6, §7, §8, §9, §10, §11

[3] = Methanolysis with NaOMe in d4-methanol (1H NMR monitoring); assay type: physicochemical; conditions: for stability to catalytic NaOMe: 5 mol % NaOMe, 22 °C; for stability to catalytic NaOMe / competition experiment, 1:1 mixture of PXN and 5MePXN: d4-methanol; for concentration in competitive methanolysis: 5 mol% NaOMe in CD3OD; for competition experiment, 1:1 mixture of PXN and 5MePXN: 5 mol% NaOMe
From the text: Even addition of 2 equivalents NaOMe had no effect on 5MePXN (Fig. 3b and SI), far exceeding the tolerance of PXN. Thus, C5 methylation stabilized PXN against buffered water hydrolysis, acidic hydrolysis and alkaline methanolysis (Fig. 3a–d, see also ref. [21]). This profound stabilization highlighted the unique effects to reactivity imparted by C5 methylation. Furthermore, it opened a window into understanding differences in blood degradation of 5MePXN.
Supplementary Figure 4. Competitive methanolysis of PXN and 5MePXN under 5 mol% NaOMe in CD3OD.
(a) 0 min, (b) 10 min, (c) 30 min, (d) 60 min, (e) 100 min, (f) 140 min, (g) 280 min.
Supplementary Table 5. Concentration of each component in competitive methanolysis. […]
Supplementary Figure 5. Concentration of PXN, d5-33, d9-34 and 5MePXN vs. time (min) 3.4 Methanolysis of 5MePXN under different equivalent of NaOMe in CD3OD To a solution of 5MePXN (2.5 mg, 0.0082 mmol ) in CD 3OD (0.4 mL) in 5 mm NMR tube was added a solution of NaOMe in CD3OD (0.1, 0.2, 0.5, 0.8, 1.0, 1.5 and 2.0 equiv) at room temperature. The NMR tube was shaken bottom up 5 times to make solution homogenous, then measured by 1H NMR.

[4] = Degradation in dilute sulfuric acid; assay type: physicochemical; conditions: for stability to acid: 1 mol % H2SO4 (Fig. 1b); for degradation in acid: warming, 1% H2SO4, 0.18 M, aqueous
[5] = D2O, 8.2 pH*; previously observed; cited from earlier work

C=C(C)[C@@H]1[C@H]2OC(=O)[C@@H]1[C@]1(O)C[C@H]3O[C@]34C(=O)O[C@H]2[C@]14C [PXN, picrotoxinin]
T½ in mouse plasma [1]: 1.62 h | half-life at 2 µM [1]: 1.62 h | remaining at 0 h, 2 µM [1]: 100% | remaining at 10 min, 2 µM [1]: 102% | remaining at 0.5 h, 2 µM [1]: 87.1% | remaining at 1 h, 2 µM [1]: 67.4% | remaining at 2 h, 2 µM [1]: 44.7% | T½ in human plasma [2]: 1.8 h | half-life at 2 µM [2]: 1.8 h | remaining at 0 h, 2 µM [2]: 100% | remaining at 10 min, 2 µM [2]: 130% | remaining at 0.5 h, 2 µM [2]: 114% | remaining at 1 h, 2 µM [2]: 72.9% | remaining at 2 h, 2 µM [2]: 55.8% | stability to catalytic NaOMe [3]: equimolar mixture of d5-methyl picrotoxate (d5-33) and d9-dimethyl picrotoxinin dicarboxylate (d9-34) in 6 h; also recorded: unstable | concentration in competitive methanolysis ([3]; 0 min): 3424.6 µM | concentration in competitive methanolysis ([3]; 5 min): 2952 µM | concentration in competitive methanolysis ([3]; 10 min): 2500 µM | concentration in competitive methanolysis ([3]; 15 min): 2181 µM | concentration in competitive methanolysis ([3]; 20 min): 1935 µM | concentration in competitive methanolysis ([3]; 25 min): 1679 µM | concentration in competitive methanolysis ([3]; 30 min): 1564 µM | concentration in competitive methanolysis ([3]; 35 min): 1495 µM | concentration in competitive methanolysis ([3]; 40 min): 1464 µM | concentration in competitive methanolysis ([3]; 45 min): 1375 µM | concentration in competitive methanolysis ([3]; 50 min): 1307 µM | concentration in competitive methanolysis ([3]; 55 min): 1223 µM | concentration in competitive methanolysis ([3]; 60 min): 1119 µM | concentration in competitive methanolysis ([3]; 65 min): 1044 µM | concentration in competitive methanolysis ([3]; 70 min): 962 µM | concentration in competitive methanolysis ([3]; 75 min): 925.6 µM | concentration in competitive methanolysis ([3]; 80 min): 856.1 µM | concentration in competitive methanolysis ([3]; 85 min): 800.1 µM | concentration in competitive methanolysis ([3]; 90 min): 773 µM | concentration in competitive methanolysis ([3]; 95 min): 730.2 µM | concentration in competitive methanolysis ([3]; 100 min): 704.7 µM | concentration in competitive methanolysis ([3]; 110 min): 611.5 µM | concentration in competitive methanolysis ([3]; 120 min): 560.5 µM | concentration in competitive methanolysis ([3]; 130 min): 515 µM | concentration in competitive methanolysis ([3]; 140 min): 466.6 µM | concentration in competitive methanolysis ([3]; 280 min): 215.8 µM | competition experiment, 1:1 mixture of PXN and 5MePXN [3]: completely degraded | stability to acid [4]: unstable | degradation in acid [4]: clean conversion to picrotoxic acid (32) in 24 h | t1/2 of degradation (pseudo-first order) [5]: 60 h

C=C(C)C1C2OC(=O)C1(C)C1(O)CC3OC34C(=O)OC2C41C (stereo not drawn) [5MePXN, 5-methylpicrotoxinin]
increase of extrapolated half-life by C5 methylation, mouse plasma ([1]; 5MePXN vs. PXN): 2.1 X | T½ in mouse plasma [1]: 3.45 h | half-life at 2 µM [1]: 3.45 h | remaining at 0 h, 2 µM [1]: 100% | remaining at 10 min, 2 µM [1]: 97.9% | remaining at 0.5 h, 2 µM [1]: 87.9% | remaining at 1 h, 2 µM [1]: 75.7% | remaining at 2 h, 2 µM [1]: 68% | increase of extrapolated half-life by C5 methylation, human plasma ([2]; 5MePXN vs. PXN): 2.7 X | T½ in human plasma [2]: 4.82 h and > 4.82 h | half-life at 2 µM [2]: 4.82 h | remaining at 0 h, 2 µM [2]: 100% | remaining at 10 min, 2 µM [2]: 103% | remaining at 0.5 h, 2 µM [2]: 93.7% | remaining at 1 h, 2 µM [2]: 84.5% | remaining at 2 h, 2 µM [2]: 77.7% | stability to catalytic NaOMe [3]: did not observe any consumption | concentration in competitive methanolysis ([3]; 0 min): 3268 µM | concentration in competitive methanolysis ([3]; 5 min): 3268 µM | concentration in competitive methanolysis ([3]; 10 min): 3268 µM | concentration in competitive methanolysis ([3]; 15 min): 3268 µM | concentration in competitive methanolysis ([3]; 20 min): 3268 µM | concentration in competitive methanolysis ([3]; 25 min): 3268 µM | concentration in competitive methanolysis ([3]; 30 min): 3268 µM | concentration in competitive methanolysis ([3]; 35 min): 3268 µM | concentration in competitive methanolysis ([3]; 40 min): 3268 µM | concentration in competitive methanolysis ([3]; 45 min): 3268 µM | concentration in competitive methanolysis ([3]; 50 min): 3268 µM | concentration in competitive methanolysis ([3]; 55 min): 3268 µM | concentration in competitive methanolysis ([3]; 60 min): 3268 µM | concentration in competitive methanolysis ([3]; 65 min): 3268 µM | concentration in competitive methanolysis ([3]; 70 min): 3268 µM | concentration in competitive methanolysis ([3]; 75 min): 3268 µM | concentration in competitive methanolysis ([3]; 80 min): 3268 µM | concentration in competitive methanolysis ([3]; 85 min): 3268 µM | concentration in competitive methanolysis ([3]; 90 min): 3268 µM | concentration in competitive methanolysis ([3]; 95 min): 3268 µM | concentration in competitive methanolysis ([3]; 100 min): 3268 µM | concentration in competitive methanolysis ([3]; 110 min): 3268 µM | concentration in competitive methanolysis ([3]; 120 min): 3268 µM | concentration in competitive methanolysis ([3]; 130 min): 3268 µM | concentration in competitive methanolysis ([3]; 140 min): 3268 µM | concentration in competitive methanolysis ([3]; 280 min): 3268 µM | competition experiment, 1:1 mixture of PXN and 5MePXN [3]: completely persisted | stability to excess NaOMe ([3]; 200 mol % (2 equivalents) NaOMe): had no effect; also recorded: stable | stability to acid [4]: stable | degradation in acid [4]: did not react at all | t1/2 of degradation (pseudo-first order) [5]: 120 h

From article PMC10721898, “C5 methylation confers accessibility, stability and selectivity to picrotoxinin” (Nature Communications, 2023)
